How the values were obtained:
Assay in all cases: biochemical
Set-up in all cases: KinomeScan competition binding panel (DiscoveRx), percent of control at 1 uM
Details in all cases: read-out: Percent Control
STK36 = STK36 (Homo sapiens, UniProt Q9NRP7)
Description: (§1) In order to further confirm the binding mode, we then tested the compounds in the BTK wild-type (wt) and BTK C481S mutant with immunoblotting by looking at the BTK Y551 auto-phosphorylation. […] In addition, a covalent bond was preferred to form between the […] acrylamide and Cys-481 near the hinge binding area, which further confirmed its irreversible binding mode (Fig. 1d). We next investigated CHMFL-BTK-11′s selectivity profile in 456 kinases/mutants with KinomeScan^TM technology.

MAP4K5 = MAP4K5 (Homo sapiens, UniProt Q9Y4K4)
Description: as §1

AURKB = AURKB (Homo sapiens, UniProt Q96GD4)
Description: as §1

EPHB1 = EPHB1 (Homo sapiens, UniProt P54762)
Description: as §1

NIM1 = biological target: T1, NIM1 (Homo sapiens, UniProt Q8IY84)
T1 construct: gene NIM1K
Description: as §1

LIMK2 = LIMK2 (Homo sapiens, UniProt P53671)
Description: as §1

CSF1R = CSF1R (Homo sapiens, UniProt P07333)
Description: as §1

MINK = biological target: T2, MINK (Homo sapiens, UniProt Q8N4C8)
T2 construct: gene MINK1
Description: as §1

DAPK2 = DAPK2 (Homo sapiens, UniProt Q9UIK4)
Description: as §1

EPHA5 = EPHA5 (Homo sapiens, UniProt P54756)
Description: as §1

IRAK4 = IRAK4 (Homo sapiens, UniProt Q9NWZ3)
Description: as §1

SRC = SRC (Homo sapiens, UniProt P12931)
Description: as §1

NEK11 = NEK11 (Homo sapiens, UniProt Q8NG66)
Description: as §1

PAK7 = biological target: T3, PAK7 (Homo sapiens, UniProt Q9P286)
T3 construct: gene PAK5
Description: as §1

MAP4K4 = MAP4K4 (Homo sapiens, UniProt O95819)
Description: as §1

CDKL5 = CDKL5 (Homo sapiens, UniProt O76039)
Description: as §1

RET = RET (Homo sapiens, UniProt P07949)
Description: as §1

MAP3K15 = MAP3K15 (Homo sapiens, UniProt Q6ZN16)
Description: as §1

ABL2 = ABL2 (Homo sapiens, UniProt P42684)
Description: as §1

KIT(V559D,T670I) = KIT(V559D,T670I) (Homo sapiens, UniProt P10721, T670I/V559D)
Description: as §1

IGF1R = IGF1R (Homo sapiens, UniProt P08069)
Description: as §1

AAK1 = AAK1 (Homo sapiens, UniProt Q2M2I8)
Description: as §1

MARK4 = MARK4 (Homo sapiens, UniProt Q96L34)
Description: as §1

LOK = biological target: T4, LOK (Homo sapiens, UniProt O94804)
T4 construct: gene STK10
Description: as §1

PFTK1 = biological target: T5, PFTK1 (Homo sapiens, UniProt O94921)
T5 construct: gene CDK14
Description: as §1

Sequence of NEK11 (Q8NG66 whole entry): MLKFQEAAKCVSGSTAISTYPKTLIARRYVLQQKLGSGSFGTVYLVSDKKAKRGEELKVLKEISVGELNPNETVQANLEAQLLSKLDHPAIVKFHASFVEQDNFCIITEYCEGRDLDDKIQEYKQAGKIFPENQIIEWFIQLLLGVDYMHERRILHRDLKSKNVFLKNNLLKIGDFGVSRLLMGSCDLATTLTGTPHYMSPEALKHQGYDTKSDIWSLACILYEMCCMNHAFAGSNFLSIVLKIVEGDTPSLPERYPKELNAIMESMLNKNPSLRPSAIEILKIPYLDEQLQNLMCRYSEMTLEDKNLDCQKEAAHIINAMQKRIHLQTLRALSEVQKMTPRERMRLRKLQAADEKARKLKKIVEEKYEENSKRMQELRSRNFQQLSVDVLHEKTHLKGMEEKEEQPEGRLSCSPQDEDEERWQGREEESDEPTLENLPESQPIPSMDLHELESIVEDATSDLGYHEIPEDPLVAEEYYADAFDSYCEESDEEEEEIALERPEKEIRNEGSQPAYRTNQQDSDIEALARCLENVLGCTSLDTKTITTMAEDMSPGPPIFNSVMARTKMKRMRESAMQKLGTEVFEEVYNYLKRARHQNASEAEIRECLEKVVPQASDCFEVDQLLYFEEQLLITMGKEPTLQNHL
Sequence of IGF1R (P08069 whole entry): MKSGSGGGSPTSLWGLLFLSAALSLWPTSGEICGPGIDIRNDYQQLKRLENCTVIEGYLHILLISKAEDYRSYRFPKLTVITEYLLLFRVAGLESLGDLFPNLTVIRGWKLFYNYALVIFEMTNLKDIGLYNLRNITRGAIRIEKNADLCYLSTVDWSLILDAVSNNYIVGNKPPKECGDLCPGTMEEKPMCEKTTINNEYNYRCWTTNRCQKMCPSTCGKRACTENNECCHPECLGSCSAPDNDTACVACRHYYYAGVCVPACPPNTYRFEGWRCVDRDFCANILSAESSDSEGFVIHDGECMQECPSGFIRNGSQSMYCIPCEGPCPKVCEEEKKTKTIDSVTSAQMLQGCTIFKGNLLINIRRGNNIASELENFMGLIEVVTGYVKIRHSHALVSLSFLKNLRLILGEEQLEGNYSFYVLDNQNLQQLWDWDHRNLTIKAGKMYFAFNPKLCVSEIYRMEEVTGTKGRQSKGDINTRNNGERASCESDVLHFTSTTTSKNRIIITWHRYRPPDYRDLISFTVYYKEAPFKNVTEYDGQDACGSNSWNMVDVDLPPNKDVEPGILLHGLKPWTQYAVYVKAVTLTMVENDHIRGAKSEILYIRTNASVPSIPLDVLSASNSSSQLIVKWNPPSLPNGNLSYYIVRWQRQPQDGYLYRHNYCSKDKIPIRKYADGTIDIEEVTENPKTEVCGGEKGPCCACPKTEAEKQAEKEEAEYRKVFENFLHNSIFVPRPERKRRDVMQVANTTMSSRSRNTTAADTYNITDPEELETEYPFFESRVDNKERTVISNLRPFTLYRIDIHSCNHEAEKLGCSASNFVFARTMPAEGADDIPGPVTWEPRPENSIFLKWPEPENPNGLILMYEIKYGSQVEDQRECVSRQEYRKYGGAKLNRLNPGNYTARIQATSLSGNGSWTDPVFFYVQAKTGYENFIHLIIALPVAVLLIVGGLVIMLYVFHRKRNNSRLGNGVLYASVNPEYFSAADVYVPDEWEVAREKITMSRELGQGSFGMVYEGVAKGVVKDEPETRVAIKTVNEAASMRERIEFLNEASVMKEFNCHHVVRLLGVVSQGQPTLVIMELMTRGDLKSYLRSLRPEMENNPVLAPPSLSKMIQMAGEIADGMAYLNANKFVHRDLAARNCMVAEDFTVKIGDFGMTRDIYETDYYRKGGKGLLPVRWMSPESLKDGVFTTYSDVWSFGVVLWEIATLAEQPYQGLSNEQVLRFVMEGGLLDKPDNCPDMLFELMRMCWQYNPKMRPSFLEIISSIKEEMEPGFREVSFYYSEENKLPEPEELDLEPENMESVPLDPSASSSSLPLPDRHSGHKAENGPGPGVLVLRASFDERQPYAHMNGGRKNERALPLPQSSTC
Sequence of MAP4K4 (O95819 whole entry): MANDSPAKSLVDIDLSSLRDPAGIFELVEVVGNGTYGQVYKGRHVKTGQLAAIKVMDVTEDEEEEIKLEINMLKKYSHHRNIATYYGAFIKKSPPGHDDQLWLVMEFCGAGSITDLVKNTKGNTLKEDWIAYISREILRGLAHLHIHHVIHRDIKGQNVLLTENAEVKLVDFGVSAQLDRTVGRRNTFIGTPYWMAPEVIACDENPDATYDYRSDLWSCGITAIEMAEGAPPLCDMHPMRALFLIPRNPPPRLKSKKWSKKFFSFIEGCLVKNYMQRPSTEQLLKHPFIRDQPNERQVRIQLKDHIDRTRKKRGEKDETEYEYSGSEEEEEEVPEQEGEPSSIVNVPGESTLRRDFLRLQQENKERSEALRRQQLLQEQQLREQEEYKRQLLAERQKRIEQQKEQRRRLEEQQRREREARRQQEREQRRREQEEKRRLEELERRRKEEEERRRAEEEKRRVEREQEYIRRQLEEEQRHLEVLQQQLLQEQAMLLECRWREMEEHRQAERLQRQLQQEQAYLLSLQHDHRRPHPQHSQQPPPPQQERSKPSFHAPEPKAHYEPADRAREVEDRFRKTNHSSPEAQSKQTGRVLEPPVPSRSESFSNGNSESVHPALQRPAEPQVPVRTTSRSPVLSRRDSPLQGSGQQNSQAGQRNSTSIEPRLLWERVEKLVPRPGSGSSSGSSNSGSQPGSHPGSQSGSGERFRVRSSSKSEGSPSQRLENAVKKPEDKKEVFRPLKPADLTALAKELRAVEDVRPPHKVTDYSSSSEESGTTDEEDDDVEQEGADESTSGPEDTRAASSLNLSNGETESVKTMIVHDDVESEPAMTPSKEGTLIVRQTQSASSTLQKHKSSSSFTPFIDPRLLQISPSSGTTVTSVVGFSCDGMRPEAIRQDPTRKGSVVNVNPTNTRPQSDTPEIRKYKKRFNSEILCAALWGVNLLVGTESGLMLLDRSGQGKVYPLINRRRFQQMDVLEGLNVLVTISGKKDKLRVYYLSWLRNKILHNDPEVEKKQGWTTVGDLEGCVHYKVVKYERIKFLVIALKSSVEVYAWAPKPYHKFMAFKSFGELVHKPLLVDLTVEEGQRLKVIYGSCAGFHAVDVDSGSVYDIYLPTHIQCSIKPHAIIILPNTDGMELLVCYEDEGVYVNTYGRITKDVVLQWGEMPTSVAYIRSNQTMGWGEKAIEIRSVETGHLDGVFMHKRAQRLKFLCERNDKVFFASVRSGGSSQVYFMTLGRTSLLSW
T4 sequence (O94804 whole entry): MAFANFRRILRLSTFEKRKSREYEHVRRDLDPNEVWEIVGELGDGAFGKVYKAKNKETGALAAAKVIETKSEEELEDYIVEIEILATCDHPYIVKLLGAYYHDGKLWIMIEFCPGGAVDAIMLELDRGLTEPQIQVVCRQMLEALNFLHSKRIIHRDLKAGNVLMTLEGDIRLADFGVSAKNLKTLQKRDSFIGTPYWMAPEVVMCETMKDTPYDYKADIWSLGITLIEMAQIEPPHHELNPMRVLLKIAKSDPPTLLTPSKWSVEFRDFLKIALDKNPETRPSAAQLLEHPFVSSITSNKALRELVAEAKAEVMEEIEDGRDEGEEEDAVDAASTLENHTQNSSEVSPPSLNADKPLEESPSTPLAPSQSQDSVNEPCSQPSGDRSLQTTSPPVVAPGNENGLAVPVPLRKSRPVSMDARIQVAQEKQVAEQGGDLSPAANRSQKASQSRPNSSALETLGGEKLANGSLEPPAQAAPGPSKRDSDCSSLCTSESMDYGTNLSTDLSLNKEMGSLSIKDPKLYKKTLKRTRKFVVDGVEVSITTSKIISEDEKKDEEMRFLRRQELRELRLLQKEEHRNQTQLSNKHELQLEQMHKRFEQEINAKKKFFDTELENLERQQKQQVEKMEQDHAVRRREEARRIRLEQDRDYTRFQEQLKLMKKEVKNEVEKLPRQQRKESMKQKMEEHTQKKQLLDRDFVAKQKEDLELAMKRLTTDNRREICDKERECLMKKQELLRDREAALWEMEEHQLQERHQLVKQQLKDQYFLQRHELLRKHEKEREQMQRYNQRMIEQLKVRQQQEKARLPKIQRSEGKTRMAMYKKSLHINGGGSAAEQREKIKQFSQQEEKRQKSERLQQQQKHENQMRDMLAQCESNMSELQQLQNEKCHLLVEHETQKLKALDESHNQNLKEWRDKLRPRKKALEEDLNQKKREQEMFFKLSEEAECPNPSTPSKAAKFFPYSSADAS
Sequence of MAP4K5 (Q9Y4K4 whole entry): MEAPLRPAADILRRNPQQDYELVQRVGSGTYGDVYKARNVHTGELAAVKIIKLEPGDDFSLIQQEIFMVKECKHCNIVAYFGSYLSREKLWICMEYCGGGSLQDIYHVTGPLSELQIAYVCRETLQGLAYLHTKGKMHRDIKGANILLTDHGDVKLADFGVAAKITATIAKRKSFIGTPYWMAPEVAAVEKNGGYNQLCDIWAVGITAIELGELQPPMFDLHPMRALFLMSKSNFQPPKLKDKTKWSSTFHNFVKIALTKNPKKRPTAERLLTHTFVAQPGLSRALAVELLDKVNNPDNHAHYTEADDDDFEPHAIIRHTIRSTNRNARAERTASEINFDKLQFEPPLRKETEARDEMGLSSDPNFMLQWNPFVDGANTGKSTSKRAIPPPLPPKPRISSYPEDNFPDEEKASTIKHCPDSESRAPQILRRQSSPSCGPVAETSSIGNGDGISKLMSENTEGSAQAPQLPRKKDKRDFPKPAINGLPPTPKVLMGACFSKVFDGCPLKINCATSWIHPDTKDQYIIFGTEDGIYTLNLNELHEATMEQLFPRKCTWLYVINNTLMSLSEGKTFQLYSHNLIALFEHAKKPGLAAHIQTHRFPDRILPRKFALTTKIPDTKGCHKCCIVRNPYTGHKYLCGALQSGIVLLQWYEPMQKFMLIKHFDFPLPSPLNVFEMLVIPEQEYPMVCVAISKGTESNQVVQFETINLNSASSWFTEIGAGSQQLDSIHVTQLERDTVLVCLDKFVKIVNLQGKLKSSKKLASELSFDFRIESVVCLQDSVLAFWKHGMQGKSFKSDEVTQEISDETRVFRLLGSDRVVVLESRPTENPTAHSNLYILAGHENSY

SMILES: C=CC(=O)Nc1cc(-n2c(=O)ccc3cnc4ccc(-n5cccn5)cc4c32)ccc1C [CHMFL-BTK-11]
- remaining binding at 1 µM (STK36): 97%
- remaining binding at 1 µM (MAP4K5): 100%
- remaining binding at 1 µM (AURKB): 94%
- remaining binding at 1 µM (EPHB1): 100%
- remaining binding at 1 µM (NIM1): 100%
- remaining binding at 1 µM (LIMK2): 100%
- remaining binding at 1 µM (CSF1R): 91%
- remaining binding at 1 µM (MINK): 64%
- remaining binding at 1 µM (DAPK2): 100%
- remaining binding at 1 µM (EPHA5): 100%
- remaining binding at 1 µM (IRAK4): 82%
- remaining binding at 1 µM (SRC): 98%
- remaining binding at 1 µM (NEK11): 96%
- remaining binding at 1 µM (PAK7): 100%
- remaining binding at 1 µM (MAP4K4): 97%
- remaining binding at 1 µM (CDKL5): 100%
- remaining binding at 1 µM (RET): 100%
- remaining binding at 1 µM (MAP3K15): 80%
- remaining binding at 1 µM (ABL2): 100%
- remaining binding at 1 µM (KIT(V559D,T670I)): 99%
- remaining binding at 1 µM (IGF1R): 100%
- remaining binding at 1 µM (AAK1): 62%
- remaining binding at 1 µM (MARK4): 79%
- remaining binding at 1 µM (LOK): 97%
- remaining binding at 1 µM (PFTK1): 100%

Reference: PMC5428509, “Irreversible inhibition of BTK kinase by a novel highly selective inhibitor CHMFL-BTK-11 suppresses inflammatory response in rheumatoid arthritis model” (Scientific Reports, 2017)
